Like-named read-outs stand apart in the source and are kept apart here.
Columns and labels:
[1] = molecular target: hKIF18A (1-374) (Homo sapiens (Human), UniProt Q8NI77); assay: Inhibition of KIF18A microtubule-dependent ATPase activity (ADP-Glo); type: biochemical; conditions: 4 nM hKIF18A (1-374)
How it was run: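 Reaction was started with pre-formed microtubules and ATP (0.2 mg/mL and 2.0 mM in the added mix) and run 60 min at 28 °C. ADP was read by ADP-Glo luminescence, and IC50 came from a four-parameter fit of % inhibition.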

[2] = molecular target: KIF18a-microtubule complex (Homo sapiens (Human), UniProt Q8NI77); assay: Binding kinetics to KIF18a-microtubule complex (global progress curve analysis); conditions: for kon (on-rate from binding kinetics assay) / koff: KIF18A 0.25 nM, up to 24 hr; for koff: read-out: koff (off-rate from binding kinetics assay) (converted); for Ki: koff/kon, read-out: KI (determined from binding kinetic assay koff/kon)
Experimental: Compound binding kinetics parameters (kon and koff) were determined by the method of global progress curve analysis (GPCA). […] ADP product levels were determined by the Promega® ADP-Glo assay.

[3] = system: JIMT-1 cells; assay: Cell viability of KIF18a-sensitive cell lines, JIMT-1 (Cell Titre-Glo, 7 days); type: cell-based; conditions: JIMT-1, 7 days, read-out: JIMT-1 IC50
Experimental: (§1) Cell lines were seeded as follows 24 hours before compound treatment: HCC15 (Korean Cell Line Bank) 600 cell/well, 95 μL of RPMI-1640 media supplemented with 100 units/mL penicillin, 100 units/mL streptomycin and 10% FBS; NIH:OVCAR-3 (ATCC), 1000 cell/well, 95 μL of RPMI-1640 media supplemented with 100 units/mL penicillin, 100 units/mL streptomycin, 0.01 mg/mL bovine insulin, and 20% FBS; JIMT-1 (Addexbio) 1000 cell/well, 95 μL of DMEM media supplemented with 100 units/mL penicillin, 100 units/mL streptomycin, and 10% FBS.
(§2) Test compounds were added to cells in a 20× dilution scheme by adding 5 μL of serially diluted compound to the plate, and the treated cells were incubated for an additional 7 days in a 37° C., 5% CO2 incubator. DMSO was used as the negative control (0% effect), and wells omitting cells were used as the positive control (100% effect). The cells were incubated for seven days, and cell viability determined via the Promega Cell Titre-Glo® Assay kit. Luminescence units were converted to ATP concentrations via an ATP standard curve (10 point, 2-fold dilution from 5 uM). % Inhibition was calculated for each well as: ([max−min]−[test−min])/[max−min]. IC50 values were calculated from concentration vs. % Inhibition data via a four-parameter variable slope model.

[4] = system: NIH:OVCAR-3 cells; assay: Cell viability of KIF18a-sensitive cell lines, NIH:OVCAR-3 (Cell Titre-Glo, 7 days); type: cell-based; conditions: NIH:OVCAR3, 7 days, read-out: NIH:OVCAR3 IC50
Experimental: as §1, §2

[5] = system: HCC15 cells; assay: Cell viability of KIF18a-sensitive cell lines, HCC15 (Cell Titre-Glo, 7 days); type: cell-based; conditions: HCC15, 7 days, read-out: HCC15 IC50
Experimental: as §1, §2

Chain of hKIF18A (1-374) (Q8NI77 1-374): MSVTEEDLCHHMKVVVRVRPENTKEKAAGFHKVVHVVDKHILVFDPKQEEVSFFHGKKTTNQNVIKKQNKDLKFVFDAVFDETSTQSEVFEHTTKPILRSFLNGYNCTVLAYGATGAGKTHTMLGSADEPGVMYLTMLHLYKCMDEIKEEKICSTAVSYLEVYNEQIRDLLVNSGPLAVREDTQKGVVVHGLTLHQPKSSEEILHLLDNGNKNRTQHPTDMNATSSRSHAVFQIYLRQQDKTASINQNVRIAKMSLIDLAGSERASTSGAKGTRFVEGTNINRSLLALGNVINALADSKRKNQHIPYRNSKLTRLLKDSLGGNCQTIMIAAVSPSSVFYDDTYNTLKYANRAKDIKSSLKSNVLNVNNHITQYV
Chain of KIF18a-microtubule complex (Q8NI77 1-374, one chain of several): as the sequence (Q8NI77 1-374) above

SMILES | IC50 [1] | kon (on-rate from binding kinetics assay) [2] | koff [2] | Ki [2] | disc. t1/2 (dissociation half-life ln(2)/koff) [2] | IC50 ([3]; Homo sapiens, 168 h) | IC50 ([4]; Homo sapiens, OVCAR-3, 168 h) | IC50 ([5]; 168 h) | IC50 [3] | IC50 [4] | IC50 [5]
CS(=O)(=O)Nc1ccc(-c2ncc(-c3cccc(N4CCOCC4)n3)[nH]2)c(N2CCC3(CC2)CC3)c1 [Compound 10, N-(4-(5-(6-morpholinopyridin-2-yl)-1H-imidazol-2-yl)-3-(6-azaspiro[2.5]octan-6-yl)phenyl)methanesulfonamide] | 0.0092 µM | 4720 M⁻¹ s⁻¹ | 6.67e-05 s⁻¹ | 0.014 µM | 2.9 h | 0.13 µM | 0.21 µM | 0.12 µM |  |  | 
Cc1cc(-c2cn(-c3ccc(NS(=O)(=O)CCO)cc3N3CCCCC3)nn2)nc(N2CCC(F)(F)CC2)c1 [Compound 68, N-(4-(4-(6-(4,4-difluoropiperidin-1-yl)-4-methylpyridin-2-yl)-1H-1,2,3-triazol-1-yl)-3-(piperidin-1-yl)phenyl)-2-hydroxyethane-1-sulfonamide] | 0.012 µM | 21900 M⁻¹ s⁻¹ | 1.81e-05 s⁻¹ | 0.00082 µM | 11 h | 0.03 µM | 0.021 µM | 0.028 µM |  |  | 
CS(=O)(=O)Nc1ccc(-c2ncc(-c3cccc(N4CCC(F)(F)CC4)n3)[nH]2)c(N2CCC3(CC2)CC3)c1 [Compound 9, N-(4-(5-(6-(4,4-difluoropiperidin-1-yl)pyridin-2-yl)-1H-imidazol-2-yl)-3-(6-azaspiro[2.5]octan-6-yl)phenyl)methanesulfonamide] | 0.021 µM | 6670 M⁻¹ s⁻¹ | 5.83e-05 s⁻¹ | 0.0087 µM | 3.3 h | 0.1 µM | 0.2 µM | 0.11 µM |  |  | 
O=S(=O)(CCO)Nc1ccc(-n2cc(-c3csc(N4CCC(F)(F)CC4)n3)nn2)c(N2CCC3(CC2)CC3)c1 [Compound 69, N-(4-(4-(2-(4,4-difluoropiperidin-1-yl)thiazol-4-yl)-1H-1,2,3-triazol-1-yl)-3-(6-azaspiro[2.5]octan-6-yl)phenyl)-2-hydroxyethane-1-sulfonamide] | 0.006 µM | 36100 M⁻¹ s⁻¹ | 1.94e-05 s⁻¹ | 0.00053 µM | 9.9 h | 0.038 µM | 0.032 µM | 0.029 µM |  |  | 
O=S(=O)(CCO)Nc1ccc(-n2cc(-c3cccc(N4CCC(F)(F)CC4)n3)nn2)c(N2CCC3(CC2)CC3)c1 [Compound 45, N-(4-(4-(6-(4,4-difluoropiperidin-1-yl)pyridin-2-yl)-1H-1,2,3-triazol-1-yl)-3-(6-azaspiro[2.5]octan-6-yl)phenyl)-2-hydroxyethane-1-sulfonamide] | 0.0066 µM | 30600 M⁻¹ s⁻¹ | 6.67e-06 s⁻¹ | 0.00021 µM | 28 h | 0.0069 µM | 0.0055 µM | 0.0039 µM |  |  | 
Cc1cc(-c2cn(-c3ccc(NS(=O)(=O)CCO)cc3N3CCCCC3)nn2)nc(N2CCC(F)(F)CC2)n1 [Compound 67, N-(4-(4-(2-(4,4-difluoropiperidin-1-yl)-6-methylpyrimidin-4-yl)-1H-1,2,3-triazol-1-yl)-3-(piperidin-1-yl)phenyl)-2-hydroxyethane-1-sulfonamide] | 0.022 µM | 12200 M⁻¹ s⁻¹ | 2.06e-05 s⁻¹ | 0.0017 µM | 9.4 h | 0.066 µM | 0.047 µM | 0.051 µM |  |  | 
CS(=O)(=O)Nc1ccc(-n2cc(-c3cccc(N4CCC(F)(F)CC4)n3)nn2)c(N2CCC3(CC2)CC3)c1 [Compound 11, N-(4-(4-(6-(4,4-difluoropiperidin-1-yl)pyridin-2-yl)-1H-1,2,3-triazol-1-yl)-3-(6-azaspiro[2.5]octan-6-yl)phenyl)methanesulfonamide] | 0.023 µM | 36100 M⁻¹ s⁻¹ | 4.44e-06 s⁻¹ | 0.00013 µM | 43 h | 0.0091 µM | 0.023 µM | 0.013 µM |  |  | 
CS(=O)(=O)Nc1ccc(-c2cn(-c3cccc(N4CCC(F)(F)CC4)c3)nn2)c(N2CCC3(CC2)CC3)c1 [Compound 64, N-(4-(1-(3-(4,4-difluoropiperidin-1-yl)phenyl)-1H-1,2,3-triazol-4-yl)-3-(6-azaspiro[2.5]octan-6-yl)phenyl)methanesulfonamide] | 0.025 µM |  |  |  |  | 0.12 µM | 0.12 µM | 0.12 µM |  |  | 
Cc1cc(N2CCC(F)(F)CC2)nc(-n2cc(-c3ccc(NS(=O)(=O)CCO)cc3N3CCC4(CC3)CC4)nn2)c1 [Compound 95, N-(4-(1-(6-(4,4-difluoropiperidin-1-yl)-4-methylpyridin-2-yl)-1H-1,2,3-triazol-4-yl)-3-(6-azaspiro[2.5]octan-6-yl)phenyl)-2-hydroxyethane-1-sulfonamide] | 0.038 µM |  |  |  |  | 0.068 µM | 0.051 µM | 0.037 µM |  |  | 
O=S(=O)(Nc1ccc(-n2cc(-c3cccc(N4CCC(F)(F)CC4)n3)nn2)c(N2CCC3(CC2)CC3)c1)C1(CO)CC1 [Compound 62, N-(4-(4-(6-(4,4-difluoropiperidin-1-yl)pyridin-2-yl)-1H-1,2,3-triazol-1-yl)-3-(6-azaspiro[2.5]octan-6-yl)phenyl)-1-(hydroxymethyl)cyclopropane-1-sulfonamide] | 0.018 µM |  |  |  |  | 0.0095 µM | 0.013 µM | 0.013 µM |  |  | 
O=S(=O)(CCO)Nc1ccc(-n2cc(-c3cccc(C(O)C4CCCC4)n3)nn2)c(N2CCC3(CC2)CC3)c1 (single isomer, unassigned) [Compound 90b] | 0.0056 µM |  |  |  |  |  |  |  | 0.02 µM | 0.021 µM | 0.013 µM
CCS(=O)(=O)Nc1cc(N2CCC3(CC2)CC3)c(-n2cc(-c3cccc(S(=O)(=O)NC(C)(C)C)c3)nn2)cc1F [Compound 117, N-(tert-butyl)-3-(1-(4-(ethylsulfonamido)-5-fluoro-2-(6-azaspiro[2.5]octan-6-yl)phenyl)-1H-1,2,3-triazol-4-yl)benzenesulfonamide] | 0.02 µM |  |  |  |  | 0.014 µM | 0.013 µM | 0.01 µM |  |  | 
CCS(=O)(=O)Nc1ccc(-n2cc(-c3cccc(S(=O)(=O)NC(C)(C)C)c3)nn2)c(N2CCC3(CC2)CC3)c1 [Compound 116, N-(tert-butyl)-3-(1-(4-(ethylsulfonamido)-2-(6-azaspiro[2.5]octan-6-yl)phenyl)-1H-1,2,3-triazol-4-yl)benzenesulfonamide] | 0.014 µM |  |  |  |  | 0.0063 µM | 0.0039 µM | 0.0036 µM |  |  | 
O=S(=O)(CCO)Nc1ccc(-n2cc(-c3cccc(C(O)C4CCCC4)n3)nn2)c(N2CCC3(CC2)CC3)c1 (single isomer, unassigned) [Compound 90a] | 0.0052 µM |  |  |  |  |  |  |  | 0.011 µM | 0.014 µM | 0.0074 µM
Cc1cc(-n2cc(-c3ccc(NS(=O)(=O)CCO)cc3N3CCC4(CC3)CC4)nn2)nc(N2CC3C(C2)C3(F)F)n1 (stereo not shown) [Compound 97, N-(4-(1-(2-(6,6-difluoro-3-azabicyclo[3.1.0]hexan-3-yl)-6-methylpyrimidin-4-yl)-1H-1,2,3-triazol-4-yl)-3-(6-azaspiro[2.5]octan-6-yl)phenyl)-2-hydroxyethane-1-sulfonamide] | 0.036 µM |  |  |  |  | 0.11 µM | 0.072 µM | 0.037 µM |  |  | 

— patent publication US20230382889A1 (Volastra Therapeutics, Inc., priority 2022, published 2023)
